{"source": "patent US20070049564A1", "about": "(Wyeth, priority 2005, published 2007)", "key": {"E. faecium GC 2243": {"tested_on": "E. faecium GC 2243", "assay": "MIC, broth microdilution", "conditions": "Enterococcus faecium"}, "S. aureus GC 4536": {"tested_on": "S. aureus GC 4536", "assay": "MIC, broth microdilution", "conditions": "Staphylococcus aureus"}, "S. aureus GC 6467": {"tested_on": "S. aureus GC 6467", "assay": "MIC, broth microdilution", "conditions": "Staphylococcus aureus"}, "E. faecium GC 4556": {"tested_on": "E. faecium GC 4556", "assay": "MIC, broth microdilution", "conditions": "Enterococcus faecium"}, "E. coli GC 6465": {"tested_on": "E. coli GC 6465", "assay": "MIC, broth microdilution", "conditions": "Escherichia coli"}, "S. typhimurium GC 2172": {"tested_on": "S. typhimurium GC 2172", "assay": "MIC, broth microdilution", "conditions": "Salmonella enterica, TYPHIMURIUM"}, "Staph.": {"tested_on": "Staph.", "assay": "Range of MIC for Staph. strains, including MRSA", "conditions": "Staphylococcus aureus, MRSA"}, "E. coli GC 2231": {"tested_on": "E. coli GC 2231", "assay": "MIC, broth microdilution", "conditions": "Escherichia coli"}, "E. coli GC 2270": {"tested_on": "E. coli GC 2270", "assay": "MIC, broth microdilution", "conditions": "Escherichia coli"}, "E. coli GC 2233": {"tested_on": "E. coli GC 2233", "assay": "MIC, broth microdilution", "conditions": "Escherichia coli"}, "S. aureus GC 6469": {"tested_on": "S. aureus GC 6469", "assay": "MIC, broth microdilution", "conditions": "Staphylococcus aureus"}, "S. aureus GC 6466": {"tested_on": "S. aureus GC 6466", "assay": "MIC, broth microdilution", "conditions": "Staphylococcus aureus"}, "S. aureus GC 2216": {"tested_on": "S. aureus GC 2216", "assay": "MIC, broth microdilution", "conditions": "Staphylococcus aureus"}, "E. faecalis GC 2242": {"tested_on": "E. faecalis GC 2242", "assay": "MIC, broth microdilution", "conditions": "Enterococcus faecalis"}, "S. aureus GC 1079": {"tested_on": "S. aureus GC 1079", "assay": "MIC, broth microdilution", "conditions": "Staphylococcus aureus"}, "E. coli GC 1073": {"tested_on": "E. coli GC 1073", "assay": "MIC, broth microdilution", "conditions": "Escherichia coli"}, "E. coli GC 4560": {"tested_on": "E. coli GC 4560", "assay": "MIC, broth microdilution", "conditions": "Escherichia coli"}, "E. coli GC 2235": {"tested_on": "E. coli GC 2235", "assay": "MIC, broth microdilution", "conditions": "Escherichia coli"}, "E. coli": {"tested_on": "E. coli", "assay": "Range of MIC for E. coli strains", "conditions": "Escherichia coli", "experimental": "Antimicrobial susceptibility testing. The in vitro activities of the antibiotics are determined by the broth microdilution method as recommended by the National Committee for Clinical Laboratory Standards (NCCLS) (1). Mueller-Hinton II broth (MHBII)(BBL Cockeysville, Md.) is the medium employed in the testing procedures. Microtiter plates containing serial dilutions of each antimicrobial agent are inoculated with each organism to yield the appropriate density (10^5 CFU/ml) in a 100 μl final volume. The plates are incubated for 18-22 hours at 35° C. in ambient air.\nRepresentative compounds were first incubated in mouse serum for an hour prior to the in vitro testing against a panel of selected gram-positive and gram-negative bacteria strains. All compounds were also pre-incubated in water for an hour prior to testing as control. Representative compounds of Formula I were incubated in human serum prior to MIC determination."}, "c. albicans GC 3066": {"tested_on": "c. albicans GC 3066", "assay": "MIC, broth microdilution"}}, "note": "Where two headings read alike, the source gives them in different places.", "data": [{"smiles": "CCCCN(CC(=O)Nc1cc(N(C)C)c2c(c1O)C(=O)C1=C(O)[C@]3(O)C(=O)C(C(N)=O)=C(O)[C@@H](N(C)C)[C@@H]3C[C@@H]1C2)C(=O)OCOC(=O)c1cccs1", "note": "[Example 23, ({[(2-{[(5aR,6aS,7S,10aS)-9-(aminocarbonyl)-4,7-bis(dimethylamino)-1,8,10a,11-tetrahydroxy-10,12-dioxo-5,5a,6,6a,7,10,10a,12-octahydrotetracen-2-yl]amino}-2-oxoethyl)(butyl)amino]carbonyl}oxy)methyl thiophene-2-carboxylate]", "values": [{"measurement": "MIC", "setting": "E. faecium GC 2243; GC2243, read-out: MINIMAL INHIBITORY CONCENTRATION MIC, pre-incubated in Mouse Serum", "value": 0.5, "unit": "µg/mL"}, {"measurement": "MIC", "setting": "E. faecium GC 2243; GC2243, read-out: MINIMAL INHIBITORY CONCENTRATION MIC, pre-incubated in Water", "value": 4, "unit": "µg/mL"}, {"measurement": "MIC", "setting": "S. aureus GC 4536; GC4536, read-out: MINIMAL INHIBITORY CONCENTRATION MIC, pre-incubated in Mouse Serum", "value": 1, "unit": "µg/mL"}, {"measurement": "MIC", "setting": "S. aureus GC 4536; GC4536, read-out: MINIMAL INHIBITORY CONCENTRATION MIC, pre-incubated in Water", "value": 2, "unit": "µg/mL"}, {"measurement": "MIC", "setting": "S. aureus GC 6467; GC6467, read-out: MINIMAL INHIBITORY CONCENTRATION MIC, pre-incubated in Mouse Serum", "value": 4, "unit": "µg/mL"}, {"measurement": "MIC", "setting": "S. aureus GC 6467; GC6467, read-out: MINIMAL INHIBITORY CONCENTRATION MIC, pre-incubated in Water", "value": 8, "unit": "µg/mL"}, {"measurement": "MIC", "setting": "E. faecium GC 4556; GC4556, read-out: MINIMAL INHIBITORY CONCENTRATION MIC, pre-incubated in Mouse Serum", "value": 2, "unit": "µg/mL"}, {"measurement": "MIC", "setting": "E. faecium GC 4556; GC4556, read-out: MINIMAL INHIBITORY CONCENTRATION MIC, pre-incubated in Water", "value": 4, "unit": "µg/mL"}, {"measurement": "MIC", "setting": "E. coli GC 6465; GC6465, read-out: MINIMAL INHIBITORY CONCENTRATION MIC, pre-incubated in Mouse Serum", "value": 4, "unit": "µg/mL"}, {"measurement": "MIC", "setting": "E. coli GC 6465; GC6465, read-out: MINIMAL INHIBITORY CONCENTRATION MIC, pre-incubated in Water", "value": "> 64", "unit": "µg/mL"}, {"measurement": "MIC", "setting": "S. typhimurium GC 2172; read-out: MINIMAL INHIBITORY CONCENTRATION MIC, pre-incubated in Mouse Serum", "value": 4, "unit": "µg/mL"}, {"measurement": "MIC", "setting": "S. typhimurium GC 2172; read-out: MINIMAL INHIBITORY CONCENTRATION MIC, pre-incubated in Water", "value": "> 64", "unit": "µg/mL"}, {"measurement": "MIC", "setting": "Staph.; read-out: Minimum inhibitory concentration (MIC), Staph. (mouse serum)", "value": "0.25 to 4", "unit": "µg/mL"}, {"measurement": "MIC", "setting": "Staph.; read-out: Minimum inhibitory concentration (MIC), Staph. (water)", "value": "0.5 to 8", "unit": "µg/mL"}, {"measurement": "MIC", "setting": "Staph.; read-out: Range of MIC, Staph (Mouse Serum)", "value": "0.25 to 4", "unit": "µg/mL"}, {"measurement": "MIC", "setting": "Staph.; read-out: Range of MIC, Staph (Water)", "value": "0.5 to 8", "unit": "µg/mL"}, {"measurement": "MIC", "setting": "E. coli GC 2231; GC2231, read-out: MINIMAL INHIBITORY CONCENTRATION MIC, pre-incubated in Mouse Serum", "value": 2, "unit": "µg/mL"}, {"measurement": "MIC", "setting": "E. coli GC 2231; GC2231, read-out: MINIMAL INHIBITORY CONCENTRATION MIC, pre-incubated in Water", "value": "> 64", "unit": "µg/mL"}, {"measurement": "MIC", "setting": "E. coli GC 2270; GC2270, read-out: MINIMAL INHIBITORY CONCENTRATION MIC, pre-incubated in Mouse Serum", "value": 1, "unit": "µg/mL"}, {"measurement": "MIC", "setting": "E. coli GC 2270; GC2270, read-out: MINIMAL INHIBITORY CONCENTRATION MIC, pre-incubated in Water", "value": "> 64", "unit": "µg/mL"}, {"measurement": "MIC", "setting": "E. coli GC 2233; GC2233, read-out: MINIMAL INHIBITORY CONCENTRATION MIC, pre-incubated in Mouse Serum", "value": 2, "unit": "µg/mL"}, {"measurement": "MIC", "setting": "E. coli GC 2233; GC2233, read-out: MINIMAL INHIBITORY CONCENTRATION MIC, pre-incubated in Water", "value": "> 64", "unit": "µg/mL"}, {"measurement": "MIC", "setting": "S. aureus GC 6469; GC6469, read-out: MINIMAL INHIBITORY CONCENTRATION MIC, pre-incubated in Mouse Serum", "value": 4, "unit": "µg/mL"}, {"measurement": "MIC", "setting": "S. aureus GC 6469; GC6469, read-out: MINIMAL INHIBITORY CONCENTRATION MIC, pre-incubated in Water", "value": 4, "unit": "µg/mL"}, {"measurement": "MIC", "setting": "S. aureus GC 6466; GC6466, read-out: MINIMAL INHIBITORY CONCENTRATION MIC, pre-incubated in Mouse Serum", "value": 0.25, "unit": "µg/mL"}, {"measurement": "MIC", "setting": "S. aureus GC 6466; GC6466, read-out: MINIMAL INHIBITORY CONCENTRATION MIC, pre-incubated in Water", "value": 0.5, "unit": "µg/mL"}, {"measurement": "MIC", "setting": "S. aureus GC 2216; GC2216, read-out: MINIMAL INHIBITORY CONCENTRATION MIC, pre-incubated in Mouse Serum", "value": 1, "unit": "µg/mL"}, {"measurement": "MIC", "setting": "S. aureus GC 2216; GC2216, read-out: MINIMAL INHIBITORY CONCENTRATION MIC, pre-incubated in Water", "value": 4, "unit": "µg/mL"}, {"measurement": "MIC", "setting": "E. faecalis GC 2242; GC2242, read-out: MINIMAL INHIBITORY CONCENTRATION MIC, pre-incubated in Mouse Serum", "value": 2, "unit": "µg/mL"}, {"measurement": "MIC", "setting": "E. faecalis GC 2242; GC2242, read-out: MINIMAL INHIBITORY CONCENTRATION MIC, pre-incubated in Water", "value": 4, "unit": "µg/mL"}, {"measurement": "MIC", "setting": "S. aureus GC 1079; GC1079, read-out: MINIMAL INHIBITORY CONCENTRATION MIC, pre-incubated in Mouse Serum", "value": 2, "unit": "µg/mL"}, {"measurement": "MIC", "setting": "S. aureus GC 1079; GC1079, read-out: MINIMAL INHIBITORY CONCENTRATION MIC, pre-incubated in Water", "value": 4, "unit": "µg/mL"}, {"measurement": "MIC", "setting": "E. coli GC 1073; GC1073, read-out: MINIMAL INHIBITORY CONCENTRATION MIC, pre-incubated in Mouse Serum", "value": 1, "unit": "µg/mL"}, {"measurement": "MIC", "setting": "E. coli GC 1073; GC1073, read-out: MINIMAL INHIBITORY CONCENTRATION MIC, pre-incubated in Water", "value": "> 64", "unit": "µg/mL"}, {"measurement": "MIC", "setting": "E. coli GC 4560; GC4560, read-out: MINIMAL INHIBITORY CONCENTRATION MIC, pre-incubated in Mouse Serum", "value": 0.5, "unit": "µg/mL"}, {"measurement": "MIC", "setting": "E. coli GC 4560; GC4560, read-out: MINIMAL INHIBITORY CONCENTRATION MIC, pre-incubated in Water", "value": 8, "unit": "µg/mL"}, {"measurement": "MIC", "setting": "E. coli GC 2235; GC2235, read-out: MINIMAL INHIBITORY CONCENTRATION MIC, pre-incubated in Mouse Serum", "value": 1, "unit": "µg/mL"}, {"measurement": "MIC", "setting": "E. coli GC 2235; GC2235, read-out: MINIMAL INHIBITORY CONCENTRATION MIC, pre-incubated in Water", "value": "> 64", "unit": "µg/mL"}, {"measurement": "MIC", "setting": "E. coli; 20 h, read-out: Range of MIC, E. coli (Mouse Serum)", "value": "1 to 8", "unit": "µg/mL"}, {"measurement": "MIC", "setting": "E. coli; read-out: Minimum inhibitory concentration (MIC), E. coli (mouse serum)", "value": "1 to 8", "unit": "µg/mL"}, {"measurement": "MIC", "setting": "E. coli; read-out: Minimum inhibitory concentration (MIC), E. coli (water)", "value": "> 64", "unit": "µg/mL"}, {"measurement": "MIC", "setting": "E. coli; read-out: Range of MIC, E. coli (Water)", "value": "> 64", "unit": "µg/mL"}, {"measurement": "MIC", "setting": "c. albicans GC 3066; Candida albicans, GC3066, read-out: MINIMAL INHIBITORY CONCENTRATION MIC", "value": "> 64", "unit": "µg/mL"}, {"measurement": "MINIMAL INHIBITORY CONCENTRATION MIC", "setting": "c. albicans GC 3066; pre-incubated in Water", "value": ">64", "unit": "UG/ML"}]}]}
